Reference: patent US9676760B2, “Fused heterocyclic compounds as ion channel modulators” (Gilead Sciences, Inc., priority 2011, dated 2017)

Molecular target: wild-type human cardiac sodium channel, hNav1.5 (Homo sapiens, UniProt Q14524)
Assay: Late INa screening assay (QPatch whole cell patch clamp, HEK293)
Format: cell-based
Conditions: compound at 1 μM, 10 μM Tefluthrin; for inhibition at 1 µM: HEK293, percent block of late INa, read-out: Late INa 1 μM
Procedure: The late sodium current (Late INa) and peak sodium current (Peak INa) assays are performed on an automated electrophysiology platform, QPatch 16× (Sophion Bioscience, Copenhagen, Denmark), which uses the whole cell patch clamp technique to measure currents through the cell membrane of up to 16 cells at a time. The assay uses an HEK293 (human embryonic kidney) cell line heterologously expressing the wild-type human cardiac sodium channel, hNav1.5, purchased from Millipore (Billerica, Mass.). No beta subunits were coexpressed with the Na channel alpha subunit. Cells are maintained with standard tissue culture procedures and stable channel expression is maintained with 400 μg/mL Geneticin in the culture medium. Cells isolated for use on QPatch are incubated for 5 minutes in Detachin 1×(Genlantis, San Diego, USA) at 37° C. to ensure that 80-90% of the cells are single and not part of a cell cluster. Experiments are carried out at 23-25° C.
For both the Late INa and Peak INa assays, series resistance compensation is set to 100% and series resistance and whole-cell compensation are performed automatically. Currents are digitized at 25 kHz and low-pass filtered at 12 kHz and 10 kHz for the late and peak INa assays, respectively. Currents through open sodium channels are automatically recorded and stored in the Sophion Bioscience Oracle database (Sophion Bioscience, Copenhagen, Denmark). Analysis is performed using QPatch Assay and database software and data are compiled in Excel.
Compound stocks are routinely made by the Gilead Sample Bank in plastic vials to 10 mM in dimethyl sulfoxide (DMSO). In some cases, when compounds are not soluble in DMSO, they are made in 100% ethanol. Stocks are sonicated as necessary. The extracellular solution for screening Late INa is composed of: 140 mM NaCl, 4 mM KCl, 1.8 mM CaCl2, 0.75 mM MgCl2 and 5 mM HEPES with pH adjusted to 7.4 using NaOH. The intracellular solution used to perfuse the inside of the cells for both the Late INa and Peak INa assays contains: 120 mM CsF, 20 mM CsCl, 5 mM EGTA, 5 mM HEPES and pH adjusted to 7.4 with CsOH. Compounds are diluted in extracellular solution to 1 μM in glass vials and then transferred to glass well plates before robotic addition to the cells. The 0 mM Na extracellular solution (0Na-ECF) used at the end of each experiment for the Late INa and Peak INa assays to measure baseline current contains: 140 mM N-methyl-D-glucamine; 4 mM KCl; 1.8 mM CaCl2; 0.75 mM MgCl2; 5 mM HEPES and pH was adjusted to 7.4 with HCl.
For the Late INa assay, sodium channels are activated every 10 seconds (0.1 Hz) by depolarizing the cell membrane to −20 mV for 250 milliseconds (ms) from a holding potential of −120 mV. In response to a −20 mV voltage step, typical hNav1.5 sodium currents activate rapidly to a peak negative current and then inactivate nearly completely within 3-4 ms.
Compounds were tested to determine their activity in blocking the late sodium current. Late INa was generated by adding 10 μM Tefluthrin (pyrethroid) to the extracellular solution while recording Na currents. […] ATX-II and tefluthrin occupy distinct, non-overlapping binding sites and modify Na^+ channel function differently to increase late INa. […] After establishing the whole cell recording configuration, late INa activator is added to each well 4 times over a 16-17 minute period so that the late component of the Na current reaches a stable value.
Results are reported as percent block of late INa.

wild-type human cardiac sodium channel, hNav1.5, sequence (Q14524 whole entry): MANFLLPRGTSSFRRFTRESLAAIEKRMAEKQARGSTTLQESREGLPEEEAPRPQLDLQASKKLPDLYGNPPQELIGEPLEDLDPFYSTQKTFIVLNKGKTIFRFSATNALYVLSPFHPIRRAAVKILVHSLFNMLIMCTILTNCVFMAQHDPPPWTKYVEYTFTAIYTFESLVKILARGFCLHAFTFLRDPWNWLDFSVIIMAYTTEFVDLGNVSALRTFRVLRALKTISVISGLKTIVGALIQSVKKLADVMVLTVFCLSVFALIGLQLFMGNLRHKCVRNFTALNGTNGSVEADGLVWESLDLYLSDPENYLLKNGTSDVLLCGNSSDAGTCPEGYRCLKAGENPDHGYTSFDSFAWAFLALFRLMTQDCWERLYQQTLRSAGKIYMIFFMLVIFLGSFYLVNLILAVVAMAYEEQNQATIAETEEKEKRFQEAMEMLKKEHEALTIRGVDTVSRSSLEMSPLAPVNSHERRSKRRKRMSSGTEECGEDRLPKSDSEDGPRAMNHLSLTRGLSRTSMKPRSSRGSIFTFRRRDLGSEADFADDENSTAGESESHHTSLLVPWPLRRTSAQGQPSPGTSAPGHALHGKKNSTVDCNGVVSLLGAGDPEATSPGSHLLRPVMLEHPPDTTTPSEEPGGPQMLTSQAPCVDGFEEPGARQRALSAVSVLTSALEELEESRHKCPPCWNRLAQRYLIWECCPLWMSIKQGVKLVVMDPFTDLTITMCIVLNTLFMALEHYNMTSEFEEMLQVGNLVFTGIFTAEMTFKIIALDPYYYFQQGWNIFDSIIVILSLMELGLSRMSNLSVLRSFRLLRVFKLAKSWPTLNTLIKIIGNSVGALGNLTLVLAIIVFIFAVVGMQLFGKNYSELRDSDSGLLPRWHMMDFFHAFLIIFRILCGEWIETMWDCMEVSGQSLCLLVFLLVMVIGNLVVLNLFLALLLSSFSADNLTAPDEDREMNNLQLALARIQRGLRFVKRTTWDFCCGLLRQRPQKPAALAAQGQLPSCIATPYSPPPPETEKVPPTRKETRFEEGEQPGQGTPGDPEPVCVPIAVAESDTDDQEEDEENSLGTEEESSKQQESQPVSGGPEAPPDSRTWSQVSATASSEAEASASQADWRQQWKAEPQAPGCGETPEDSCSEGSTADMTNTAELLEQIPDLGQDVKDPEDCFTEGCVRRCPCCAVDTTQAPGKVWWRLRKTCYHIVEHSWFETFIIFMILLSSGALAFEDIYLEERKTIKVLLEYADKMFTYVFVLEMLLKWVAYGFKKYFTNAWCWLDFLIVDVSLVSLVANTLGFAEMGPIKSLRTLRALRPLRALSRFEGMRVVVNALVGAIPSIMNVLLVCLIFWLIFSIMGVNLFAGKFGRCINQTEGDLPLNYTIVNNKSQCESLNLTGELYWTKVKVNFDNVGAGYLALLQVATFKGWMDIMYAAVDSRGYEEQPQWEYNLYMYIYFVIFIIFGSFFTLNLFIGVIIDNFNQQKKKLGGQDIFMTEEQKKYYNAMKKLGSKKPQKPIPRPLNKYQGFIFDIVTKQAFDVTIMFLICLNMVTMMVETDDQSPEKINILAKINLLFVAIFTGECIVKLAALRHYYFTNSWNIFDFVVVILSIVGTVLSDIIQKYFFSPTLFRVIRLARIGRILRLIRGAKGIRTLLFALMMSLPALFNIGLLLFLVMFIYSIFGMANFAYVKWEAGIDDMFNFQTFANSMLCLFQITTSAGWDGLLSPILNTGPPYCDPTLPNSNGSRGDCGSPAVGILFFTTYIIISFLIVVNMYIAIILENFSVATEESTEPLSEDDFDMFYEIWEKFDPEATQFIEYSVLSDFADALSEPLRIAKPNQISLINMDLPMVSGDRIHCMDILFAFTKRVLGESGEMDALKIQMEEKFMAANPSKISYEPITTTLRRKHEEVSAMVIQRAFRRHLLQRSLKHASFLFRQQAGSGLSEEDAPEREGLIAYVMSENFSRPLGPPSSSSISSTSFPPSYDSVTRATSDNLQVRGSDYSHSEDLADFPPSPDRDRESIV

| SMILES | inhibition at 1 µM [%] | Late INa 1 μM (percent block of late INa) [%] |
| --- | --- | --- |
| O=C1c2cc(-c3ccc(OC(F)(F)F)cc3)ccc2OCCN1CCCS(=O)(=O)NC1CC1 [II-190, N-cyclopropyl-3-(5-oxo-7-(4-(trifluoromethoxy)phenyl)-2,3-dihydrobenzo[f][1,4]oxazepin-4(5H)-yl)propane-1-sulfonamide] | 18 |  |
| C[C@@H]1COc2ccc(-c3ccc(C(F)(F)F)cc3)cc2C(=O)N1Cc1ncccn1 [II-13, (R)-3-methyl-4-(pyrimidin-2-ylmethyl)-7-(4-(trifluoromethyl)phenyl)-3,4-dihydrobenzo[f][1,4]oxazepin-5(2H)-one] | 18 |  |
| O=C1c2cc(-c3ccc(OC(F)(F)F)cc3)ccc2OCCN1Cc1ncc(Cl)cn1 [II-65, 4-((5-chloropyrimidin-2-yl)methyl)-7-(4-(trifluoromethoxy)phenyl)-3,4-dihydrobenzo[f][1,4]oxazepin-5(2H)-one] | 19 |  |
| O=C1c2cc(-c3ccc(C(F)(F)F)cn3)ccc2OCCN1Cc1ccccn1 [VI-26, 4-(pyridin-2-ylmethyl)-7-(5-(trifluoromethyl)pyridin-2-yl)-3,4-dihydrobenzo[f][1,4]oxazepin-5(2H)-one] | 28 |  |
| N#CC1(c2ccc(-c3ccc4c(c3)C(=O)N(Cc3ncccn3)CCO4)cc2)CCCC1 [II-122, 1-(4-(5-oxo-4-(pyrimidin-2-ylmethyl)-2,3,4,5-tetrahydrobenzo[f][1,4]oxazepin-7-yl)phenyl)cyclopentanecarbonitrile] | 19 |  |
| CC(C)(C)Oc1cc(-c2ccc3c(c2)C(=O)N(Cc2ccccn2)CCO3)ccn1 [VI-4, 7-(2-tert-butoxypyridin-4-yl)-4-(pyridin-2-ylmethyl)-3,4-dihydrobenzo[f][1,4]oxazepin-5(2H)-one] | 36 |  |
| Cn1cnc(CN2CCOc3ccc(-c4ccc(OC(F)(F)F)cc4)cc3C2=O)c1 [II-154, 4-((1-methyl-1H-imidazol-4-yl)methyl)-7-(4-(trifluoromethoxy)phenyl)-3,4-dihydrobenzo[f][1,4]oxazepin-5(2H)-one] | 25 |  |
| O=C1c2cc(Oc3ccc(OC(F)(F)F)cc3)ccc2OCCN1Cc1ncccn1 [XIII-2, 4-(pyrimidin-2-ylmethyl)-7-(4-(trifluoromethoxy)phenoxy)-3,4-dihydrobenzo[f][1,4]oxazepin-5(2H)-one] | 19 |  |
| O=C1c2cc(-c3ccc(C4CC4)cc3)ccc2OCCN1Cc1ncccn1 [II-92, 7-(4-cyclopropylphenyl)-4-(pyrimidin-2-ylmethyl)-3,4-dihydrobenzo[f][1,4]oxazepin-5 (2H)-one] | 34 |  |
| Cc1cc(C(=O)N2CCOc3ccc(-c4ccc(OC(F)(F)F)cc4)cc3C2)nn1C [III-58, (1,5-dimethyl-1H-pyrazol-3-yl)(7-(4-(trifluoromethoxy)phenyl)-2,3-dihydrobenzo[f][1,4]oxazepin-4(5H)-yl)methanone] | 26 |  |
| N[C@H]1C[C@H]2COc3ccc(-c4ccc(C(F)(F)F)cc4)cc3C(=O)N2C1 [II-51, (2S,11aS)-2-amino-7-(4-(trifluoromethyl)phenyl)-2,3,11,11a-tetrahydrobenzo[f]pyrrolo[2,1-c][1,4]oxazepin-5(1H)-one] | 20 |  |
| N[C@@H]1C[C@H]2COc3ccc(-c4ccc(C(F)(F)F)cc4)cc3C(=O)N2C1 [II-21, (2R,11aS)-2-amino-7-(4-(trifluoromethyl)phenyl)-2,3,11,11a-tetrahydrobenzo[f]pyrrolo[2,1-c][1,4]oxazepin-5(1H)-one] | 18 |  |
| Cn1cc(CN2CCOc3ccc(-c4ccc(OC(F)(F)F)cc4)cc3C2=O)cn1 [II-160, 4-((1-methyl-1H-pyrazol-4-yl)methyl)-7-(4-(trifluoromethoxy)phenyl)-3,4-dihydrobenzo[f][1,4]oxazepin-5(2H)-one] | 48 |  |
| CC(C)c1ccc(-c2ccc3c(c2)C(=O)N(Cc2ncccn2)CCO3)cc1 [II-89, 7-(4-isopropylphenyl)-4-(pyrimidin-2-ylmethyl)-3,4-dihydrobenzo[f][1,4]oxazepin-5(2H)-one] | 28 |  |
| O=C1c2cc(-c3ccc(OC(F)(F)F)cc3)ccc2OCCN1Cc1ccc(C(F)(F)F)nc1 [II-16, 7-(4-(trifluoromethoxy)phenyl)-4-((6-(trifluoromethyl)pyridin-3-yl)methyl)-3,4-dihydrobenzo[f][1,4]oxazepin-5(2H)-one] | 19 |  |
| O=C1c2cc(-c3ccc(OC(F)(F)F)cc3)ccc2OCCN1Cc1cccnc1 [II-70, 4-(pyridin-3-ylmethyl)-7-(4-(trifluoromethoxy)phenyl)-3,4-dihydrobenzo[f][1,4]oxazepin-5(2H)-one] | 37 |  |
| O=C1c2cc(-c3ccc(C(F)(F)F)cc3)ccc2OCCN1Cc1cn2ccccc2n1 [II-135, 4-(imidazo[1,2-a]pyridin-2-ylmethyl)-7-(4-(trifluoromethyl)phenyl)-3,4-dihydrobenzo[f][1,4]oxazepin-5(2H)-one] |  | 32 |
| O=C1c2cc(Nc3ccc(OC(F)(F)F)cc3)ccc2OCCN1Cc1ncccn1 [XIII-1, 4-(pyrimidin-2-ylmethyl)-7-(4-(trifluoromethoxy)phenylamino)-3,4-dihydrobenzo[f][1,4]oxazepin-5(2H)-one] | 16 |  |
| O=C(c1cnccn1)N1CCOc2ccc(-c3ccc(OC(F)(F)F)cc3)cc2C1 [III-23, pyrazin-2-yl(7-(4-(trifluoromethoxy)phenyl)-2,3-dihydrobenzo[f][1,4]oxazepin-4(5H)-yl)methanone] | 26 |  |
| O=C1NCCOc2ccc(-c3ccc(OC(F)(F)F)cc3)cc21 [II-74, 7-(4-(trifluoromethoxy)phenyl)-3,4-dihydrobenzo[f][1,4]oxazepin-5(2H)-one] | 12 |  |
| O=C1c2ccc(-c3cccc(C(F)(F)F)c3)cc2OCCN1Cc1ncccn1 [IV-4, 4-(pyrimidin-2-ylmethyl)-8-(3-(trifluoromethyl)phenyl)-3,4-dihydrobenzo[f][1,4]oxazepin-5(2H)-one] | 14 |  |
| O=C1c2cc(-c3ccc(OCC(F)(F)F)cc3)ccc2OCCN1Cc1ncccn1 [II-107, 4-(pyrimidin-2-ylmethyl)-7-(4-(2,2,2-trifluoroethoxy)phenyl)-3,4-dihydrobenzo[f][1,4]oxazepin-5(2H)-one] | 18 |  |
| O=C(c1ccccc1)N1CCOc2ccc(-c3ccc(OC(F)(F)F)cc3)cc2C1 [III-4, phenyl(7-(4-(trifluoromethoxy)phenyl)-2,3-dihydrobenzo[f][1,4]oxazepin-4(5H)-yl)methanone] | 35 |  |
| O=C(C1CC(F)(F)C1)N1CCOc2ccc(-c3ccc(OC(F)(F)F)cc3)cc2C1 [III-11, (3,3-difluorocyclobutyl)(7-(4-(trifluoromethoxy)phenyl)-2,3-dihydrobenzo[f][1,4]oxazepin-4(5H)-yl)methanone] | 20 |  |
| O=C(NCCN1CCOc2ccc(-c3ccc(OC(F)(F)F)cc3)cc2C1=O)c1ncccn1 [II-192, N-(2-(5-oxo-7-(4-(trifluoromethoxy)phenyl)-2,3-dihydrobenzo[f][1,4]oxazepin-4(5H)-yl)ethyl)pyrimidine-2-carboxamide] | 15 |  |
| CCOc1ccc(-c2ccc3c(c2)C(=O)N(Cc2ncccn2)CCO3)cc1 [II-123, 7-(4-ethoxyphenyl)-4-(pyrimidin-2-ylmethyl)-3,4-dihydrobenzo[f][1,4]oxazepin-5(2H)-one] | 21 |  |
| O=C1c2cc(-c3ccc(C(F)(F)F)cc3)ccc2-n2ccnc2CN1Cc1ccccc1 [Compound X-12, 5-benzyl-8-(4-(trifluoromethyl)phenyl)-4H-benzo[f]imidazo[1,2-a][1,4]diazepin-6(5H)-one] | 26 |  |
| O=C1c2cc(-c3ccc(Oc4ccc(F)cc4)cc3)ccc2OCCN1Cc1ncccn1 [II-193, 7-(4-(4-fluorophenoxy)phenyl)-4-(pyrimidin-2-ylmethyl)-3,4-dihydrobenzo[f][1,4]oxazepin-5(2H)-one] | 70 |  |
